In publication PMC9089363, “Nonpolymeric Citramide-Based Kinetic Hydrate Inhibitors: Good Performance with Just Six Alkylamide Groups” (ACS Omega, 2022):
Where two headings read alike, the source gives them in different places.

What was measured:
[1] = Slow constant cooling (SCC) KHI performance test in high-pressure steel rocking cells; conditions: SNG 76 bar
Protocol: 2.5 Kinetic Hydrate Inhibitor (KHI) Performance Tests in High-Pressure Rocking Cells
A rig with five high-pressure steel rocking cells was used for carrying out the KHI performance ranking of the new molecules. Each cell has a volume of 40 mL and a steel ball for agitation. The rig was supplied by PSL Systemtechnik GmbH, Germany, but the cells were constructed by Swafas, Norway (Figure 6). As in most of our KHI studies, we used a synthetic natural gas (SNG) mixture in order to compare results with a host of previous KHI studies. The SNG gives an sII hydrate as the thermodynamically stable phase (Table 1). Also, for comparative purposes we used our standard slow constant cooling (SCC) test method.[27] The pressure was approximately 76 bar at the start of each SCC experiment. At this pressure, an average equilibrium temperature (Teq) of 20.2 °C ± 0.05 °C was obtained from five repeat tests by laboratory slow dissociation experiments in the same rocking cells.[20] This agrees very well with a Teq value of 20.5 °C calculated using Calsep’s PVTSim software.
The SCC test procedure was carried out as follows: • 1. First, 20.0 mL of aqueous test solution was added to each steel cell, i.e., half the cell volume. • 2. Air was removed from the cells by alternate vacuum and filling with 1–5 bar SNG gas. • 3. The cells were filled with a 76 bar SNG mixture at room temperature, 20.5 °C. • 4. The cells were cooled from 20.5 to 2 °C at a rate of 1 °C/h while rocking. • 5. Temperature and pressure data for each cell were collected from the sensors and recorded throughout the whole cooling procedure.
Figure 8 illustrates how this is done for one cell. The small pressure drop at the very start of the graph is due to some SNG mixture dissolving in the aqueous phase. After this, the pressure drop is linear until hydrate formation is first detected at a To of 8.4 °C, where the pressure line deviates. Nucleation may have occurred somewhat earlier but is not detectable. Ta is the first temperature at which we observe the maximum rate of gas hydrate formation for the experiment.
At 8.1 °C (Ta), the first fastest pressure drop rate occurs. In this case, the rate of hydrate growth is fast shortly after To. […] The degrees of scattering in To values (≤20%) and Ta values (≤15%) are due to the stochastic nature of gas hydrate formation and are as expected from previous studies.[28] The scattering still allows for a rough ranking of the performance of the KHI samples as long as sufficient tests are carried out for a statistically significant difference using a t-test. Depending on the variation in average To between samples, 5–10 tests suffices in most cases to get a significant difference at the 95% confidence level (p < 0.05).[29]
At least 5 (and up to 10) standard constant cooling tests were employed to get each average To and average Ta value, where To denotes the temperature at which the first macroscopic detectable gas hydrate is formed and Ta denotes the rapid hydrate formation temperature in a solution. The KHI performance of each citramide derivative was compared mostly based on the To values as complete avoidance of gas hydrate formation is the preferred goal for field operations. Thus, a lower To value of a solution corresponds to a better KHI performance. […] However, caution in using this interpretation must be taken, since a low To value will mean a high driving force, which can cause more rapid macroscopic hydrate formation than a higher To value.

[2] = Cloud point (TCl) determination; type: physicochemical; conditions: 2500 ppm aqueous solution, heated ca. 5 °C/min up to 95 °C
Protocol: A 2500 ppm aqueous solution of each citramide derivative was heated slowly (ca. 5 °C/min), and the first sign of clouding of the solution at a certain temperature was denoted as the cloud point. Any solution that was already opaque at room temperature was first kept in a cooling room at 0–5 °C overnight before heating. Each measurement was repeated at least three times to check the reproducibility of the cloud point.

[3] = Solubility in water (observation); type: physicochemical
[4] = 1000 ppm aqueous solution, SCC 1 °C/h
[5] = 2500 ppm + 1 mL of n-decane each cell + 5000 ppm nBGE, SCC 1 °C/h
[6] = 2500 ppm + 1 mL of n-decane each cell, SCC 1 °C/h
[7] = 2500 ppm + 3 mL of n-decane each cell + 5000 ppm nBGE, SCC 1 °C/h
[8] = 2500 ppm aqueous solution, cooling 20.5 to 2 °C at 1 °C/h, average of 5-10 tests
[9] = 2500 ppm aqueous solution, cooling 20.5 to 2 °C at 1 °C/h, average of 5-10 tests, lower = better KHI

SMILES	cloud p.t Tcl [2] [°C]	av. Ta (gas hydrate rapid formation temperature) [1, 8] [°C]	av. To (gas hydrate onset temperature) [1, 9] [°C]	further results
CCCCCNC(=O)CC(O)(CC(=O)NCCCCC)C(=O)NCCCCC [TnPeCAm, 2-Hydroxy-N^1,N^2,N^3-tripentylpropane-1,2,3-tricarboxamide]				solubility in water [3]: not soluble; solubility in water ([3]; listed as Tri-n-pentylcitramide): negligible solubility in water; solubility in water ([3]; listed as tri-n-pentylcitramide): not water soluble
CC(C)CNC(=O)CC(O)(CC(=O)NCC(C)C)C(=O)NCC(C)C [TiBuCAm, 2-Hydroxy-N^1,N^2,N^3-triisobutylpropane-1,2,3-tricarboxamide]	>95	13.5		
CCCNC(=O)CC(O)(CC(=O)NCCC)C(=O)NCCC [TnPrCAm, 2-Hydroxy-N^1,N^2,N^3-tripropylpropane-1,2,3-tricarboxamide]	>95	12.3	16.3	

Further lines, with some results ahead:

cloud p.t Tcl [2] [°C]	SMILES	av. Ta (gas hydrate rapid formation temperature) [1, 8] [°C]	av. To (gas hydrate onset temperature) [1, 9] [°C]	further results
35	CC(C)CNC(=O)CC(CC(=O)NCC(C)C)(OC(=O)COCC(=O)OC(CC(=O)NCC(C)C)(CC(=O)NCC(C)C)C(=O)NCC(C)C)C(=O)NCC(C)C [oxydiacetyl-TiBuCAm, 2,2′-oxydiacetic acid bis(triisobutylcitric acid) amide]	8.1	8.4	av. Ta (gas hydrate rapid formation temperature) [1, 4]: 9.2 °C; av. To (gas hydrate onset temperature) [1, 4]: 9.3 °C; av. Ta (gas hydrate rapid formation temperature) [1, 5]: 7.9 °C; av. To (gas hydrate onset temperature) [1, 5]: 8.1 °C; av. Ta (gas hydrate rapid formation temperature) [1, 6]: 7.2 °C; av. To (gas hydrate onset temperature) [1, 6]: 7.4 °C; av. Ta (gas hydrate rapid formation temperature) [1, 7]: 6.0 °C; av. To (gas hydrate onset temperature) [1, 7]: 6.2 °C
>95	CCCNC(=O)CC(CC(=O)NCCC)(OC(=O)CC(=O)OC(CC(=O)NCCC)(CC(=O)NCCC)C(=O)NCCC)C(=O)NCCC [malonyl-TnPrCAm, 1,3-Malonic acid bis(tripropylcitric acid) amide]	13.5	16.3	
>95	CCCNC(=O)CC(CC(=O)NCCC)(OC(=O)COCC(=O)OC(CC(=O)NCCC)(CC(=O)NCCC)C(=O)NCCC)C(=O)NCCC [oxydiacetyl-TnPrCAm, 2,2′-Oxydiacetic acid bis(tripropylcitric acid) amide]	12.3	12.8	
>95	CC(C)CNC(=O)CC(CC(=O)NCC(C)C)(OC(=O)CC(=O)OC(CC(=O)NCC(C)C)(CC(=O)NCC(C)C)C(=O)NCC(C)C)C(=O)NCC(C)C [malonyl-TiBuCAm, 1,3-Malonic acid bis(triisobutylcitric acid) amide]	12.7		
